The record followed here is patent US6500849B1, “1-alkyl-, 1-alkenyl-, and 1-alkynylaryl-2-amino 1,3-propanediols and related compounds” (Aventis Pharmaceuticals Inc., priority 1990, dated 2002).

For one assay, the system named is Bact. fragilis. The experiment in a line: Anerobic antibacterial assay (agar dilution, Wilkins-Chalgren agar). The note with it: anaerobic, 48 hours at 37° C. Type of assay: cell-based. In general terms: In agar dilution the substance is mixed into plates at graded concentrations.
The next assay has as its system Propionibact. acnes. The description is as above. The note with it: anaerobic, 48 hours at 37° C. The format is cell-based.
The next assay relates to Bact. thetaiotaom. The description is as above. The format is cell-based. The note with it: anaerobic, 48 hours at 37° C.
Another assay has as its system Fusobact. varium. The assay is described as above. The format is cell-based. The note with it: anaerobic, 48 hours at 37° C.
The next assay concerns Bact. distasonis. Described as above. The note with it: Bact. distasonis 1366; anaerobic; 48 hours at 37° C. The format is cell-based.
The subject of a further assay is Candida Albicans. The assay is described as follows: Antifungal assay (microtitration technique). Type of assay: cell-based. The note with it: Candida Albicans strain 200/175; 5 days at 30° C. On the procedure:
(§1) The microtiter plate is prepared as follows: The wells are each filled (2 rows/strain) with 50 μl neopeptone-dextrose broth (12-channel pipette). In addition, one row/strain is coated with 50 μl yeast-nitrogen base/well for yeasts and moulds. […] All wells are then inoculated with 150 μl standardized organism suspension (yeasts: 1×10^3 organisms/ml suspension; cutaneous fungi and moulds: 1.6×10^5 organisms/ml suspension); the total volume is 200 μl per well. There is also a growth control (inoculated, not medicated), a solvent control (inoculated, not medicated, containing solvent as in medicated rows) and a negative control (not inoculated, not medicated). Incubation for 5 days at 30° C. is followed by photometric evaluation. The obtained measurements are checked visually (macroscopically and microscopically) and corrected where necessary. Criteria for Evaluation of the Antimycotic Effect a. Photometric measurements (matrix method) b. Growth, macroscopic evaluation c. Growth, microscopic evaluation (inversion light microscope, magn. 64×).

A further assay deals with Trichophyton Vaginalis. The assay is described as follows: Antifungal assay (microtitration technique). The format is cell-based. The note with it: Trichophyton Vaginalis strain 111/216; 5 days at 30° C. On the procedure:
as §1

Assay [1] concerns Trichophyton Mentagrophytes. The experiment in a line: Antifungal assay (microtitration technique). Type of assay: cell-based. The note with it: Trichophyton Mentagrophytes strain 100/25; 5 days at 30° C. Here is the method: as §1
Another assay deals with Microsporum Canis. The experiment in a line: Antifungal assay (microtitration technique). Type of assay: cell-based. The note with it: Microsporum Canis strain 150/353; 5 days at 30° C. On the procedure: as §1
The next assay relates to Trichophyton Rubrum. The experiment in a line: Antifungal assay (microtitration technique). The note with it: Trichophyton Rubrum strain 101/85; 5 days at 30° C. The format is cell-based. On the procedure: as §1
In the next assay the test system is Aspergillus Niger. The experiment in a line: Antifungal assay (microtitration technique). The format is cell-based. The note with it: Aspergillus Niger strain 500/284; 5 days at 30° C. Here is the method:
as §1

The subject of another assay is Clost. perfringens. The assay is described as follows: microbe, parasite or virus in culture. The format is cell-based. The note with it: Clost. perfringens 194; anaerobic; 48 hours at 37° C.
The next assay concerns Peptostr. anaerobius. The assay is described as follows: Anerobic antibacterial assay (agar dilution, Wilkins-Chalgren agar). Type of assay: cell-based. The note with it: Peptostr. anaerobius 932; anaerobic; 48 hours at 37° C.
The test system of a further assay is Spaeroph. freundii. Described as above. Type of assay: cell-based. The note with it: Spaeroph. freundii 1369; anaerobic; 48 hours at 37° C.
For the next assay, the system named is Bact. ovatus. The assay is described as above. The format is cell-based. The note with it: Bact. ovatus 103; anaerobic; 48 hours at 37° C.
The next assay has as its system Bact. vulgatus. The assay is described as above. Type of assay: cell-based. The note with it: Bact. vulgatus 1446; anaerobic; 48 hours at 37° C.
The next assay has as its system Clost. tetani. The assay is described as above. Type of assay: cell-based. The note with it: Clost. tetani 19406; anaerobic; 48 hours at 37° C.
In another assay the target is Protein kinase C. The experiment in a line: Protein kinase C assay (32P incorporation into Type III histone). Type of assay: biochemical, rat. The note with it: rat brain protein kinase C; phosphatidylserine/diacylglycerol stimulated; read-out: Protein Kinase Inhibitory Activity IC50. Here is the method:
(see U. Kikkawa, et al., Biochemical and Biophysical Research Communications, 135, 636 (1986) and R. M. Bell, et al. “Methods in Enzymology, Hormone Action,” Part J, P.M. Conn, Ed., Academic Press, Inc., New York, N.Y. 1986, page 353). Protein kinase C enzyme extract was prepared from the brain of male Wistar rats weighing 180 to 200 g and purified by the method of U. Kikkawa, et al., ibid. 636. The purified extract was stored at −80° C., and aliquots were used in the protein kinase C assay performed by a modification of the method of R. M. Bell, et al., ibid. al 354. To perform the assay, duplicate aliquots of duplicate samples are employed. Basal or unstimulated protein kinase C, phosphatidylserine/diacylglycerol stimulated protein kinase C, and test samples are run in each assay. […] The assay tubes were allowed to warm to 25° C. and an 8 μl mixture of adenosine 5′-triphosphate (100 μM) and ^32P-adenosine triphosphate (1 to 2×10^5 counts per minute) was added to each tube for a final volume of 80 μl per tube. After 2 min, the reaction (the incorporation of phosphorous into Type III histone) was terminated by spotting the assay mixture on phosphocellulose paper. The spots are cut out of the paper and the radioactivity (counts per min) of each spot was determined in a scintillation counter.

For the next assay, the system named is Strept. pyogenes. The experiment in a line: Aerobic antibacterial assay (agar dilution, Mueller-Hinton agar). The note with it: Strept. pyogenes 77 A; aerobic; 24 hours at 37° C.
The subject of another assay is E. cloacae. The assay is described as above. The note with it: E. cloacae 1321E; aerobic; 24 hours at 37° C.
For assay [2], the system named is female Swiss Webster mice. The assay is described as follows: Arachidonic acid-induced ear edema assay. Type of assay: in vivo. The note with it: 1 mg/ear topical, arachidonic acid 4 mg/ear. Here is the method:
In the arachidonic acid-induced ear edema assay, the test compound was dissolved in 30/70 propylene glycol/ethanol and was applied to both ears of groups of 6 female Swiss Webster mice, which were housed together in a cage under standard conditions for 1 week prior to use with food and water ad lib, at a volume of 20 μl so that a total of 1.0 mg of test compound was delivered to each ear over the inner and outer surfaces. The same volume (20 μl) of vehicle was applied to each ear of a control group of mice. After 30 minutes, arachidonic acid was applied to the right ear of each mouse of each group in the amount of 4 mg/ear. Vehicle was applied to the left ear of each mouse of each group at a volume of 20 μl/ear. After an additional hour, the mice were sacrificed and a 4 mm plug was taken from each ear and weighed. The difference between the right and left ear plugs was determined for each animal. The antiinflammatory activity of the test compound is expressed as the mean percent change in the ear plug weight of the treated animals relative to the mean percent change in weights of control animals' ear. Antiinflammatory activity of representative compounds of the present invention as determined in this assay are presented below in Table 3.

The test system of assay [3] is female Swiss Webster mice. The assay is described as follows: TPA-induced ear edema assay. Type of assay: in vivo. The note with it: 10 μg/ear topical, after about 5 hours. Here is the method: In the TPA-induced ear edema assay, TPA (12-O-tetradecanoylphorbol-13-acetate) was dissolved in 30/70 propylene glycol/ethanol and was applied to the right ear of groups of 6 female Swiss Webster mice, which were housed together in a cage under standard conditions for 1 week prior to use with food and water ad lib, at a volume of 20 μl so that a total of 10 μg of TPA is delivered to the inner and outer surfaces of the ear. The test compound was dissolved in the vehicle and was applied to the right ear (the inner and outer surface) at a volume of 20 μl so that a total of 10 μg of the compound was delivered to the ear. After about 5 hours, the animals were sacrificed, a 4 mm diameter plug was taken from each ear and weighed. The difference between the right and left ear plug weights for each animal was determined. The antiinflammatory activity of the test compound is expressed as the mean percent change in the ear plug weight of the treated animals compared to the mean percent change in the plug weight of the control animals.

A further assay relates to Klebsiella spp. The experiment in a line: Aerobic antibacterial assay (agar dilution, Mueller-Hinton agar). The note with it: Klebsiella spp. 1522E; aerobic; 24 hours at 37° C.

For the molecule `CCCCCCCCCCC#Cc1ccc(C(O)C(N)CO)s1` (stereo not drawn) [erythro-2-Amino-1-[5-(1-Dodecynyl)-2-thienyl]-1,3-propanediol], the “Antibacterial activity (MIC, mg/l)” value with Bact. fragilis (Bact. fragilis 312) came out at 6.25 mg/L; with Bact. fragilis (Bact. fragilis 960), 6.25 mg/L; with Bact. fragilis (Bact. fragilis 1313), 6.25 mg/L; in the assay on Bact. fragilis (Bact. fragilis 17390), 3.13 mg/L; in the assay with Bact. fragilis (Bact. fragilis 18125) it was 3.13 mg/L; in the assay with Bact. fragilis (Bact. fragilis 19016), 6.25 mg/L. In addition, the “Antibacterial activity (MIC, mg/l)” value with Propionibact. acnes (Propionibact. acnes 6919) turned out to be 3.13 mg/L; in the assay on Propionibact. acnes (Propionibact. acnes 6922), 1.56 mg/L; in the assay with Bact. thetaiotaom. (Bact. thetaiotaom. 123), 3.13 mg/L; in the assay with Bact. thetaiotaom. (Bact. thetaiotaom. 1428), 6.25 mg/L; in the assay with Bact. thetaiotaom. (Bact. thetaiotaom. 1445), 3.13 mg/L; with Fusobact. varium (Fusobact. varium 3085) it was 6.25 mg/L. Further, the “Antibacterial activity (MIC, mg/l)” value in the assay with Fusobact. varium (Fusobact. varium 5262) is 3.13 mg/L; in the assay with Bact. distasonis, 3.13 mg/L; in the assay on Clost. perfringens, 6.25 mg/L; in the assay with Peptostr. anaerobius, 6.25 mg/L; in the assay on Spaeroph. freundii, 1.56 mg/L; with Bact. ovatus, 3.13 mg/L. In addition, the “Antibacterial activity (MIC, mg/l)” value was 3.13 mg/L with Bact. vulgatus and 6.25 mg/L in the assay on Clost. tetani. The “Antifungal Activity MIC” value in the assay on Candida Albicans was found to be 1.950 µg/mL; in the assay on Trichophyton Vaginalis, 15.625 µg/mL; in assay [1], 3.900 µg/mL; in the assay on Microsporum Canis, 3.900 µg/mL; in the assay with Trichophyton Rubrum it was 15.625 µg/mL; with Aspergillus Niger, 3.900 µg/mL.
`CCCCCCCCCCc1cccc(C(O)C(N)CO)n1` (stereo not drawn) [erythro-2-amino-1-(6-decyl-2-pyridinyl)-1,3-dihydroxypropane]: on Protein kinase C, the IC50 amounted to 48 µM. For the same molecule, the “Antibacterial activity (MIC, mg/l)” value in the assay with Strept. pyogenes worked out at 6.25 mg/L; in the assay on Propionibact. acnes (Propionibact. acnes 6922) it was 12.50 mg/L; in the assay on Fusobact. varium (Fusobact. varium 3085), 12.50 mg/L; in the assay on E. cloacae it was 12.50 mg/L; with Klebsiella spp. it was 12.50 mg/L. Moreover, in assay [2], the “Antiinflammatory Activity Percent Decrease in Ear Plug Weight at 1 mg/ear” value is recorded as 32%. For the same molecule, the “Antiinflammatory Activity Percent Decrease in Ear Plug Weight at 10 μg/ear” value in assay [3] was determined as 66%.
Regarding `CCCCCCCCCCC#Cc1cccc([C@@H](O)[C@H](CO)NC(C)=O)n1` [erythro-N-{1-[6-(1-Dodecynyl)-2-pyridinyl]-1,3-dihydroxy-2-propanyl}acetamide], the “Antibacterial activity (MIC, mg/l)” value in the assay with Bact. fragilis (Bact. fragilis 312) is 3.13 mg/L; in the assay on Bact. fragilis (Bact. fragilis 960), 3.13 mg/L; with Bact. fragilis (Bact. fragilis 1313), 6.25 mg/L; in the assay with Bact. fragilis (Bact. fragilis 17390), 6.25 mg/L; with Bact. fragilis (Bact. fragilis 18125) it was 3.13 mg/L; with Bact. fragilis (Bact. fragilis 19016) it was 6.25 mg/L. For the same molecule, the “Antibacterial activity (MIC, mg/l)” value with Propionibact. acnes (Propionibact. acnes 6919) was 6.25 mg/L; in the assay with Propionibact. acnes (Propionibact. acnes 6922), 6.25 mg/L; in the assay with Bact. thetaiotaom. (Bact. thetaiotaom. 123) it was 3.13 mg/L; in the assay on Bact. thetaiotaom. (Bact. thetaiotaom. 1428), 6.25 mg/L; in the assay with Bact. thetaiotaom. (Bact. thetaiotaom. 1445) it was 6.25 mg/L; with Fusobact. varium (Fusobact. varium 3085), 6.25 mg/L. In addition, the “Antibacterial activity (MIC, mg/l)” value in the assay on Fusobact. varium (Fusobact. varium 5262) stood at 6.25 mg/L; in the assay with Bact. distasonis it was 6.25 mg/L; in the assay with Clost. perfringens, 12.00 mg/L; in the assay with Peptostr. anaerobius it was 6.25 mg/L; in the assay on Spaeroph. freundii, 3.13 mg/L; with Bact. ovatus it was 3.13 mg/L. For the same molecule, the “Antibacterial activity (MIC, mg/l)” value turned out to be 3.13 mg/L in the assay with Bact. vulgatus and 12.50 mg/L in the assay with Clost. tetani. Moreover, the “Antiinflammatory Activity Percent Decrease in Ear Plug Weight at 10 μg/ear” value in [3] came out at 59%. Moreover, the “Antifungal Activity MIC” value was 125.000 µg/mL in the assay on Candida Albicans; 15.625 µg/mL in the assay with Trichophyton Vaginalis; 7.810 µg/mL in assay [1]; 0.970 µg/mL in the assay on Microsporum Canis; 31.250 µg/mL in the assay on Trichophyton Rubrum; 125.000 µg/mL in the assay on Aspergillus Niger.

In general, IC50 refers to the concentration needed to halve the response being measured.
